Measured values published in PubChem BioAssay AID1745844 (Carcinogenic Potency Database (CPDB), 2022).

Tested on: rodent lifetime carcinogenesis bioassay, tumor incidence TD50
Assay: chronic cancer bioassays in animals – CPDB, compiled studies (AID 1745844)

C=COC(C)=O
TD50 (mouse, strain Charles River CD1, males, inhaled, site: lung, lesion: squamous-cell carcinoma, dosed 104 weeks, study length 104 weeks): 32000 mg/kg/day | TD50 (mouse, strain Swiss, females, in drinking water, site: Zymbal's gland, lesion: carcinoma, dosed 78 weeks, study length 151 weeks): 36000 mg/kg/day | TD50 (mouse, strain Swiss, females, in drinking water, site: any site (literature study), lesion: benign tumor, dosed 78 weeks, study length 151 weeks): 2030 mg/kg/day | TD50 (mouse, strain Swiss, females, in drinking water, site: any site (literature study), lesion: malignant tumor, dosed 78 weeks, study length 151 weeks): 3440 mg/kg/day | TD50 (mouse, strain Swiss, females, in drinking water, site: esophagus, lesion: acanthoma, dosed 78 weeks, study length 151 weeks): 36000 mg/kg/day | TD50 (mouse, strain Swiss, females, in drinking water, site: esophagus, lesion: squamous-cell carcinoma, dosed 78 weeks, study length 151 weeks): 5640 mg/kg/day | TD50 (mouse, strain Swiss, females, in drinking water, site: forestomach, lesion: acanthoma, dosed 78 weeks, study length 151 weeks): 6850 mg/kg/day | TD50 (mouse, strain Swiss, females, in drinking water, site: forestomach, lesion: squamous-cell carcinoma, dosed 78 weeks, study length 151 weeks): 11700 mg/kg/day | TD50 (mouse, strain Swiss, females, in drinking water, site: lung, lesion: adenocarcinoma, dosed 78 weeks, study length 151 weeks): 29900 mg/kg/day | TD50 (mouse, strain Swiss, females, in drinking water, site: lung, lesion: adenoma, dosed 78 weeks, study length 151 weeks): 11700 mg/kg/day | TD50 (mouse, strain Swiss, females, in drinking water, site: lung, lesion: several types, types named in the paper, dosed 78 weeks, study length 151 weeks): 7640 mg/kg/day | TD50 (mouse, strain Swiss, females, in drinking water, site: oral cavity, lesion: squamous-cell carcinoma, dosed 78 weeks, study length 151 weeks): 36000 mg/kg/day | TD50 (mouse, strain Swiss, females, in drinking water, site: stomach, lesion: adenocarcinoma, dosed 78 weeks, study length 151 weeks): 36000 mg/kg/day | TD50 (mouse, strain Swiss, females, in drinking water, site: tongue, lesion: squamous-cell carcinoma, dosed 78 weeks, study length 151 weeks): 8760 mg/kg/day | TD50 (mouse, strain Swiss, females, in drinking water, site: uterus, lesion: adenocarcinoma, dosed 78 weeks, study length 151 weeks): 5570 mg/kg/day | TD50 (mouse, strain Swiss, females, in drinking water, site: uterus, lesion: leiomyoma, dosed 78 weeks, study length 151 weeks): 26100 mg/kg/day | TD50 (mouse, strain Swiss, females, in drinking water, site: uterus, lesion: leiomyosarcoma, dosed 78 weeks, study length 151 weeks): 26100 mg/kg/day | TD50 (mouse, strain Swiss, females, in drinking water, site: uterus, lesion: malignant tumor, dosed 78 weeks, study length 151 weeks): 3920 mg/kg/day | TD50 (mouse, strain Swiss, males, in drinking water, site: any site (literature study), lesion: benign tumor, dosed 78 weeks, study length 135 weeks): 6040 mg/kg/day | TD50 (mouse, strain Swiss, males, in drinking water, site: any site (literature study), lesion: malignant tumor, dosed 78 weeks, study length 135 weeks): 552 mg/kg/day | TD50 (mouse, strain Swiss, males, in drinking water, site: forestomach, lesion: acanthoma, dosed 78 weeks, study length 135 weeks): 9330 mg/kg/day | TD50 (mouse, strain Swiss, males, in drinking water, site: lung, lesion: adenocarcinoma, dosed 78 weeks, study length 135 weeks): 68200 mg/kg/day | TD50 (mouse, strain Swiss, males, in drinking water, site: lung, lesion: adenoma, dosed 78 weeks, study length 135 weeks): 5750 mg/kg/day | TD50 (mouse, strain Swiss, males, in drinking water, site: lung, lesion: several types, types named in the paper, dosed 78 weeks, study length 135 weeks): 28000 mg/kg/day | TD50 (mouse, strain Swiss, males, in drinking water, site: oral cavity, lesion: squamous-cell carcinoma, dosed 78 weeks, study length 135 weeks): 9330 mg/kg/day | TD50 (mouse, strain Swiss, males, in drinking water, site: stomach, lesion: adenocarcinoma, dosed 78 weeks, study length 135 weeks): 9330 mg/kg/day | TD50 (mouse, strain Swiss, males, in drinking water, site: tongue, lesion: squamous-cell carcinoma, dosed 78 weeks, study length 135 weeks): 9330 mg/kg/day | TD50 (rat, strain Charles River CD (Sprague-Dawley), females, inhaled, site: larynx, lesion: squamous-cell carcinoma, dosed 104 weeks, study length 104 weeks): 9050 mg/kg/day | TD50 (rat, strain Charles River CD (Sprague-Dawley), females, inhaled, site: nose, lesion: squamous-cell carcinoma, dosed 104 weeks, study length 104 weeks): 2220 mg/kg/day | TD50 (rat, strain Charles River CD (Sprague-Dawley), males, inhaled, site: nose, lesion: benign tumor, dosed 104 weeks, study length 104 weeks): 1240 mg/kg/day | TD50 (rat, strain Charles River CD (Sprague-Dawley), males, inhaled, site: nose, lesion: carcinoma, in situ, dosed 104 weeks, study length 104 weeks): 6310 mg/kg/day | TD50 (rat, strain Charles River CD (Sprague-Dawley), males, inhaled, site: nose, lesion: malignant tumor, dosed 104 weeks, study length 104 weeks): 2080 mg/kg/day | TD50 (rat, strain Charles River CD (Sprague-Dawley), males, inhaled, site: nose, lesion: papilloma, inverted, dosed 104 weeks, study length 104 weeks): 1550 mg/kg/day | TD50 (rat, strain Charles River CD (Sprague-Dawley), males, inhaled, site: nose, lesion: several types, types named in the paper, dosed 104 weeks, study length 104 weeks): 758 mg/kg/day | TD50 (rat, strain Charles River CD (Sprague-Dawley), males, inhaled, site: nose, lesion: squamous-cell carcinoma, dosed 104 weeks, study length 104 weeks): 3140 mg/kg/day | TD50 (rat, strain Fischer 344, females, in drinking water, site: liver, lesion: neoplastic nodule, dosed 100 weeks, study length 130 weeks): 488 mg/kg/day | TD50 (rat, strain Fischer 344, females, in drinking water, site: thyroid gland, lesion: c-cell adenoma, dosed 100 weeks, study length 130 weeks): 420 mg/kg/day | TD50 (rat, strain Fischer 344, females, in drinking water, site: thyroid gland, lesion: c-cell carcinoma, dosed 100 weeks, study length 130 weeks): 25500 mg/kg/day | TD50 (rat, strain Fischer 344, females, in drinking water, site: uterus, lesion: adenocarcinoma, dosed 100 weeks, study length 130 weeks): 494 mg/kg/day | TD50 (rat, strain Fischer 344, males, in drinking water, site: any site (literature study), lesion: several types, types named in the paper, dosed 100 weeks, study length 130 weeks): 57.7 mg/kg/day | TD50 (rat, strain Fischer 344, males, in drinking water, site: liver, lesion: neoplastic nodule, dosed 100 weeks, study length 130 weeks): 132 mg/kg/day | carcinogen call (rat, strain Fischer 344, males, in drinking water, site: thyroid gland, lesion: c-cell carcinoma, dosed 100 weeks, study length 130 weeks): positive
